Literature values, collected in US12577179B2, “Methods and compositions for soil regeneration and improved soil hydrology” (Locus Solutions IPCo, LLC, priority 2021, dated 2026).

Settings: surfactant micelles; no method or source given

Row | Molecule | micelle size
1 | CCCCCCCC/C=C\CCCCCCCC(=O)OCCOCC(OCCO)C1OCC(OCCO)C1OCCO (stereo not shown) [Tween-80] | 11.7 nm
2 | CCCCCCCCCCCCOS(=O)(=O)[O-].[Na+] [sodium dodecyl sulfate] | 3.5-6 nm
3 | Nonidet P40 | 15.4 nm
4 | Triton X-100 | 7.5 nm
